We go through 13 molecules from US20220289746A1, “PYRROLIDINE DERIVATIVES” (Hoffmann-La Roche Inc., priority 2019, published 2022).

One series deals with liver cells. The series can be described thus: Determination of the in vitro clearance in liver cells. The format is in vitro ADME. The following applies: for clearance values reduced compared to clearance values of examples P1, P2 and P55: in vitro clearance, relative to reference compounds; for Clearance: in vitro intrinsic clearance, liver cells (hepatocyte cultures), 37° C. The method, then:
Determination of the In Vitro Clearance
Incubations of a test compound at different concentrations were performed in 96 well plates containing liver cells (5% CO2 atmosphere and 37° C.). At defined time points, either cell medium was taken or the whole well was quenched with acetonitrile containing an internal standard. Samples are then cooled and centrifuged before analysis by LC-MS/MS. Different enzyme markers (Cyp3A4 substrates Midazolam, Quinidin, CYP2B6 Buproprion, CYP2D6 Dextromethorphan, CYP2C9 Tolbutamide, FMO substrate Benzydamine, UGT substrate Raloxifene) for assessing the metabolic activity of the hepatocyte cultures were used as quality control.
Log peak area ratios (test compound peak area/internal standard peak area) or concentrations were plotted against incubation time and a linear fit made to the data with emphasis upon the initial rate of compound disappearance. The slope of the fit is then used to calculate the intrinsic clearance:
Additionally, the intrinsic clearance can also be deduced by the measured rates of metabolite formation.

The target of series [1] is T1, human M4 receptor (Homo sapiens, UniProt P08173).
T1 sequence (P08173 1-479): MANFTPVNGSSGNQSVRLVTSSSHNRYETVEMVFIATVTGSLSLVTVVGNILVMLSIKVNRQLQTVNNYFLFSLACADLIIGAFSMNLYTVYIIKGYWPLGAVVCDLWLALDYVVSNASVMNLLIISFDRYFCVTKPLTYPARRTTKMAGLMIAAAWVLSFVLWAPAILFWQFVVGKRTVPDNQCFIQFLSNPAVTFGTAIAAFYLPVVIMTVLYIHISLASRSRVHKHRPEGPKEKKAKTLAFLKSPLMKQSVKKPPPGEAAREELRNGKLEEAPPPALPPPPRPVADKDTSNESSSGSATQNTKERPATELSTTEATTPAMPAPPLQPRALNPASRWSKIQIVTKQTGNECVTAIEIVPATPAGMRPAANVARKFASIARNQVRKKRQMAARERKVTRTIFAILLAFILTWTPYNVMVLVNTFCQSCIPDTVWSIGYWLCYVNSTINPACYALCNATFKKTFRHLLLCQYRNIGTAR
Description: cAMP assay for M4 positive allosteric modulators (M4 PAM cAMP assay). The format is cell-based. Further details: expressed in transfected cells; host or cells: CHO-K1. As to conditions: CHO-K1 cells expressing human M4, forskolin 7.5 μM + acetylcholine EC20 (0.2 nM). The essentials: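 CHO-K1 cells stably expressing untagged human M4 pre-treated 15 min at 37 °C with compound plus IBMX, then stimulated 30 min with 7.5 μM forskolin and EC20 acetylcholine (0.2 nM). cAMP read by TR-FRET; normalised to 2 nM acetylcholine plus forskolin as 100%, sigmoidal fit giving EC50 and % efficacy.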

Series [2] addresses T1, human M4 receptor. Description: Calcium flux assay using fluorescent imaging (M4 PAM FLIPR assay). Further details: expressed in transfected cells; host or cells: CHO (monoclonal line, clone 2). The following applies: CHO cells expressing human M4+Gqi5, acetylcholine EC20. The format is cell-based. A digest of the protocol:
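CHO cells stably expressing human M4 with Gqi5 were loaded with 2 μM Fluo-4-AM for about 90 min at 37 °C, in HBSS/20 mM HEPES pH 7.3/2.5 mM probenecid. For PAM mode, compound was pre-incubated 15 min before an EC20 acetylcholine challenge; calcium read on FDSS 7000. EC50 and efficacy are relative to 3 μM acetylcholine (EC100), four-parameter fit.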

The next series addresses T2, M4 receptor (Mus musculus, UniProt P32211).
T2 construct: host or cells: living mice (behavioural test)
T2 sequence (P32211 1-479): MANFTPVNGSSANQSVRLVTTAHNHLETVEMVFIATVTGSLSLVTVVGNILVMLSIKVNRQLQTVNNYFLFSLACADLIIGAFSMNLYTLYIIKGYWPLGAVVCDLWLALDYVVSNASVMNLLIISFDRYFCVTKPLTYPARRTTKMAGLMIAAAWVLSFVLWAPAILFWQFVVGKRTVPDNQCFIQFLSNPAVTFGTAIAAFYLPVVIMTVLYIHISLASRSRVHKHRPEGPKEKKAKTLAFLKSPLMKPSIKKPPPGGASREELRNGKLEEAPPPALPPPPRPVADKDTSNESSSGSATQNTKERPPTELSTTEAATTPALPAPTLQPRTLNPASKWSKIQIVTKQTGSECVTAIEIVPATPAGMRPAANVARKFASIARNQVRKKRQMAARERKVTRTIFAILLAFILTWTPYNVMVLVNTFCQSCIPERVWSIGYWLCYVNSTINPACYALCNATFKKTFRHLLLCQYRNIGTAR
As to conditions: rodent in vivo; effects absent in M4 knockout mice; cited from earlier work.

The next series deals with muscarinic receptors. The following applies: 345 Alzheimer patients; cited from earlier work.

SMILES strings stand for the structures.

A word on the EC50: it is the concentration needed to bring the measured effect to its halfway point. Turning to `Cc1nc2c(c(C)c1Cl)CN(C(=O)[C@@H]1CCN(c3cccnc3)C1)C2` [Example 1, (3-chloro-2,4-dimethyl-5,7-dihydropyrrolo[3,4-b]pyridin-6-yl)-[(3R)-1-(3-pyridyl)pyrrolidin-3-yl]methanone], in the series on liver cells, the “clearance values reduced compared to clearance values of examples P1, P2 and P55” value (“clearance values reduced” for short) was found to be 50%; the Clearance was 9.3 μl/min/1 * 10^6 cells. In addition, the 50% effective concentration (EC50) at human M4 receptor [1] (Table 1) turned out to be 155 nM. In addition, the EC50 on human M4 receptor [2] (Table 1) was 387 nM.

In the case of `Cc1nc2c(c(C)c1Cl)CN(C(=O)[C@@H]1CCN(c3ccncn3)C1)C2` [Example 2, (3-chloro-2,4-dimethyl-5,7-dihydropyrrolo[3,4-b]pyridin-6-yl)-[(3R)-1-pyrimidin-4-ylpyrrolidin-3-yl]methanone], in the series on liver cells, the “clearance values reduced” value is reported as 50%; the Clearance is on record as 3.5 μl/min/1 * 10^6 cells. Besides, the EC50 at human M4 receptor [1] (Table 1) amounted to 79 nM. The EC50 on human M4 receptor [2] (Table 1) came to 61 nM.

For `Cc1nc2c(c(C)c1Cl)CN(C(=O)[C@@H]1CCN(c3cc(C(F)F)ncn3)C1)C2` [Example 54, (3-chloro-2,4-dimethyl-5,7-dihydropyrrolo[3,4-b]pyridin-6-yl)-[(3R)-1-[6-(difluoromethyl)pyrimidin-4-yl]pyrrolidin-3-yl]methanone], the EC50 on human M4 receptor [1] (Table 1) is 444 nM; at human M4 receptor [2] (Table 1) it was 247 nM.

For `COCc1nc2c(c(C)c1Cl)CN(C(=O)[C@@H]1CCN(c3ccncn3)C1)C2` [Example 55, [3-chloro-2-(methoxymethyl)-4-methyl-5,7-dihydropyrrolo[3,4-b]pyridin-6-yl]-[(3R)-1-pyrimidin-4-ylpyrrolidin-3-yl]methanone], in the series on liver cells, the “clearance values reduced” value is on record as 50%; the Clearance amounted to 2.1 μl/min/1 * 10^6 cells. Besides, the EC50 at human M4 receptor [1] (Table 1) worked out at 192 nM. The EC50 on human M4 receptor [2] (Table 1) was found to be 42 nM.

As to `COCc1nc2c(c(C)c1Cl)CN(C(=O)[C@@H]1CCN(c3cccnc3)C1)C2` [Example 56, [3-chloro-2-(methoxymethyl)-4-methyl-5,7-dihydropyrrolo[3,4-b]pyridin-6-yl]-[(3R)-1-(3-pyridyl)pyrrolidin-3-yl]methanone], the EC50 on human M4 receptor [1] (Table 1) was determined as 80 nM; on human M4 receptor [2] (Table 1) it was 486 nM.

Regarding `COCc1nc2c(c(C)c1Cl)CN(C(=O)[C@@H]1CCN(c3ccnc(C(F)F)c3)C1)C2` [Example 57, [3-chloro-2-(methoxymethyl)-4-methyl-5,7-dihydropyrrolo[3,4-b]pyridin-6-yl]-[(3R)-1-[2-(difluoromethyl)-4-pyridyl]pyrrolidin-3-yl]methanone], the half-maximal effective concentration (EC50) was found to be 283 nM at human M4 receptor [1] (Table 1) and 99 nM at human M4 receptor [2] (Table 1).

Regarding `COCc1nc2c(c(C)c1Cl)CN(C(=O)[C@@H]1CCN(c3cncnc3)C1)C2` [Example 58, [3-chloro-2-(methoxymethyl)-4-methyl-5,7-dihydropyrrolo[3,4-b]pyridin-6-yl]-[(3R)-1-pyrimidin-5-ylpyrrolidin-3-yl]methanone], the EC50 at human M4 receptor [1] (Table 1) was 179 nM; on human M4 receptor [2] (Table 1), 74 nM.

With `COCc1nc2c(c(C)c1Cl)CN(C(=O)[C@@H]1CCN(c3ccnnc3)C1)C2` [Example 59, [3-chloro-2-(methoxymethyl)-4-methyl-5,7-dihydropyrrolo[3,4-b]pyridin-6-yl]-[(3R)-1-pyridazin-4-ylpyrrolidin-3-yl]methanone], the EC50 was 881 nM at human M4 receptor [1] (Table 1) and 209 nM on human M4 receptor [2] (Table 1).

Take `Cc1nc2c(c(C)c1Cl)CN(C(=O)CC1CN(c3cccnc3)C1)C2` [Example P1, reference compound]: the Clearance in the series on liver cells is 20 μl/min/1 * 10^6 cells. For the same molecule, the results for the EC50 on human M4 receptor [1] (Table 2) and at human M4 receptor [2] (Table 2) were 55 nM and 947 nM, respectively.

In the series on liver cells, `Cc1nc2c(c(C)c1Cl)CN(C(=O)CC1CN(c3ccncn3)C1)C2` [Example P2, reference compound] returned a Clearance of 7.9 μl/min/1 * 10^6 cells. For the same molecule, the EC50 worked out at 53 nM at human M4 receptor [1] (Table 2) and 35 nM at human M4 receptor [2] (Table 2).

In the case of `COCc1nc2c(c(C)c1Cl)CN(C(=O)CC1CN(c3ccncn3)C1)C2` [Example P55, 1-[3-chloro-2-(methoxymethyl)-4-methyl-5,7-dihydropyrrolo[3,4-b]pyridin-6-yl]-2-(1-pyrimidin-4-ylazetidin-3-yl)ethanone, reference compound], in the series with liver cells, the Clearance turned out to be 5.1 μl/min/1 * 10^6 cells. Also, on human M4 receptor [2] (Table 2), the EC50 came to 50 nM.

Turning to `Cc1nnc2sc(C(=O)NCc3ccc(S(=O)(=O)C(F)(F)F)cc3)c(N)c2c1C` [VU0467154], the “effect on associative learning impairments induced by MK-801” value on M4 receptor is “ameliorated the associative learning impairments”.

Take `CCCCCCOc1nsnc1C1=CCCN(C)C1` [Xanomeline]: the “effect on cognition and psychiatric symptoms” value with muscarinic receptors is “improve cognition and psychiatric symptoms”.
